For 28 compounds, Ki and IC50 results are on record in patent US10988477B2 (Merck Patent GmbH, priority 2018, dated 2021).

What is called pKi is the negative decadic logarithm of the Ki, by convention in mol/L. A lower pKi goes with a high Ki. Usually pIC50 stands for the IC50 on a negative log10 scale, so that one unit is a factor of ten. Low readings indicate a large IC50, high ones a small IC50.

The target in assay [1] is GCN2 kinase (Homo sapiens, UniProt Q9P2K8). The assay is described as follows: GCN2 enzyme inhibition assay (Transcreener ADP2 fluorescence polarization). The conditions noted are these: compounds of Formula II; 280 μM ATP, 4 nM GCN2 kinase. The format is biochemical. In a few lines:
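Human GCN2 (4 nM) preincubated 10 min with compound (0–8 μM) and 200 μM (RS)7 peptide in Tris-HCl pH 7.5, NaCl, MgCl2, DTT. Reaction started with 280 μM ATP, run 1 h at 25 °C. ADP detected by Transcreener fluorescence polarization. IC50 and Ki(app) fitted by tight-binding algorithm.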
In general terms: In fluorescence polarisation assays a small probe gives low polarisation when free and higher when bound to something large.

In assay [2] the target is intracellular GCN2 (phosphorylation of the GCN2 substrate eIF2α) (Homo sapiens, UniProt Q9P2K8). Kind of assay: GCN2 cellular inhibition assay (AlphaScreen SureFire P-eIF2α Ser51, borrelidin-treated U2OS cells). The format is cell-based. Conditions: compounds of Formula II; biomarker assay, phosphorylated eIF2α Ser51 in borrelidin-treated U2OS cells. In a few lines: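 U2OS cells adhered overnight, then treated with compounds (4-fold serial dilutions from 40 μM final) plus borrelidin 10 μM final for 1 h at 37 °C. Lysate eIF2α Ser51 phosphorylation measured by AlphaScreen SureFire. Percent inhibition calculated relative to borrelidin-only wells.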
intracellular GCN2 (phosphorylation of the GCN2 substrate eIF2α), sequence (Q9P2K8 whole entry): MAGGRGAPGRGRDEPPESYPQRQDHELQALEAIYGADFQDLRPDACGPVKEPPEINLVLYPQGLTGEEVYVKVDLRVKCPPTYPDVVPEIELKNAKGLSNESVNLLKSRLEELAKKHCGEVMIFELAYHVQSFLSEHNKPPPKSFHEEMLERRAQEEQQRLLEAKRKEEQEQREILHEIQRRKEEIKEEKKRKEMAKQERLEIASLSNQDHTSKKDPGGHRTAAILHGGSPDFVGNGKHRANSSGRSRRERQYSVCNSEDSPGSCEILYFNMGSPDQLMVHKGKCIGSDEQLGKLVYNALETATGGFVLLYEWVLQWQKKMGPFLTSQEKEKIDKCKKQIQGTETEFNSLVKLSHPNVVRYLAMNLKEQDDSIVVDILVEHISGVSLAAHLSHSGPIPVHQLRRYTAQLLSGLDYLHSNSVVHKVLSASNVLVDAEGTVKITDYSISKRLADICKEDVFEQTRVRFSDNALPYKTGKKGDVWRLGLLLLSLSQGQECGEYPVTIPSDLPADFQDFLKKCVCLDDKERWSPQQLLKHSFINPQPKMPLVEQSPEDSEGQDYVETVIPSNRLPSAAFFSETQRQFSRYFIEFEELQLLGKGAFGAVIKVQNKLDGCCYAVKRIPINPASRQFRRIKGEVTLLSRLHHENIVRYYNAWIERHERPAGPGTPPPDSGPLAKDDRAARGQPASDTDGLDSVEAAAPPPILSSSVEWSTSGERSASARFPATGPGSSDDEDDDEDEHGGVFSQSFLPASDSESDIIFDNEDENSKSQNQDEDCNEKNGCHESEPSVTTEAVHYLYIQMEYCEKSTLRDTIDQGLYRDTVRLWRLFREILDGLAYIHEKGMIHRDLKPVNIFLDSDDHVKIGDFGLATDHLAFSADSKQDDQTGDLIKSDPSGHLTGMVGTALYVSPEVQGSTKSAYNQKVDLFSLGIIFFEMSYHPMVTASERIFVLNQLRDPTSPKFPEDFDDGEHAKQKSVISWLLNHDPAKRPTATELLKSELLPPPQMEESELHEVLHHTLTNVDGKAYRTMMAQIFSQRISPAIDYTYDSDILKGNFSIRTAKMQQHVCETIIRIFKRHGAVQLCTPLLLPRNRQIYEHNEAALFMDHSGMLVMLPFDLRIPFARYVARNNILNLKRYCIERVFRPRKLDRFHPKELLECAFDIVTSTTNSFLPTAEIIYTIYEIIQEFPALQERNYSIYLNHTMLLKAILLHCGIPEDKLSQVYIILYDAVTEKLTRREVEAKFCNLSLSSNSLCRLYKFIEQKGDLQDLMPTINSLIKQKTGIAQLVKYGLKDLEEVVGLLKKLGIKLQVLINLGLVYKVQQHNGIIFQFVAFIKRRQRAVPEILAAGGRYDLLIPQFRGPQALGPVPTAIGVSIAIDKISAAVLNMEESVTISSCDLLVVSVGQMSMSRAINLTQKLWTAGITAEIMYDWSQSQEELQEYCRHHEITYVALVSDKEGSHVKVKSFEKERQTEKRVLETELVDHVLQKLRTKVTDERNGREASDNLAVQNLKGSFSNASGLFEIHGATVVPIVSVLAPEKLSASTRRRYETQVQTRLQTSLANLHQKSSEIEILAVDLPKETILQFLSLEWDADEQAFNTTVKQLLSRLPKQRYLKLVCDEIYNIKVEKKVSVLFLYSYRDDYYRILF
For orientation: Bead proximity is the source of the signal in Alpha formats.

pIC50, pKi: −log10 of the molar value.

GCN2 kinase, sequence (Q9P2K8 whole entry): as above

Turning to `CCN1CCN(c2cc(-c3cnc4ccc(C(F)F)nn34)ncn2)C(C)C1CNS(C)(=O)=O` (centres unmarked) [II-482, N-((4-(6-(6-(difluoromethyl)imidazo[12-b]pyridazin-3-yl)pyrimidin-4-yl)-1-ethyl-3-methylpiperazin-2-yl)methyl)methanesulfonamide], the pKi in assay [1] was above 8.00. In addition, the negative logarithm of the IC50 (pIC50) in assay [2] was above 6.30.
For `NC(=O)CC1CN(c2cc(-c3cnc4ccc(C(F)F)nn34)ncn2)CCN1` (centres unmarked) [II-483, 2-(4-(6-(6-(Difluoromethyl)imidazo[1,2-b]pyridazin-3-yl)pyrimidin-4-yl)piperazin-2-yl)acetamide], the pKi in assay [1] is 6.00 to 8.00. In assay [2], the negative logarithm of the IC50 (pIC50) is below 5.30.
The like results for `C[C@H]1[C@@H](C[S@@](C)(=N)=O)CCCN1c1cc(-c2cnc3ccc(C(F)F)nn23)ncn1` [II-485, (S)-(((2S,3S)-1-(6-(6-(Difluoromethyl)imidazo[1,2-b]pyridazin-3-yl)pyrimidin-4-yl)-2-methylpiperidin-3-yl)methyl)(imino)(methyl)-λ^6-sulfanone] were, in that order, above 8.00 and above 6.30.
In assay [1], `CC1C(CS(C)(=N)=O)CCCN1c1cc(-c2cnc3ccc(C(F)F)nn23)ncn1` (centres unmarked) [II-486, ((1-(6-(6-(Difluoromethyl)imidazo[1,2-b]pyridazin-3-yl)pyrimidin-4-yl)-2-methylpiperidin-3-yl)methyl)(imino)(methyl)-λ^6-sulfanone] gave a pKi of 6.00 to 8.00. For the same compound, in assay [2], the negative-log IC50 (pIC50) is 5.30 to 6.30.
Turning to `CC1C(CS(C)(=N)=O)CCCN1c1cc(-c2cnc3ccc(C(F)F)nn23)ncn1` (centres unmarked) [II-487, ((1-(6-(6-(Difluoromethyl)imidazo[1,2-b]pyridazin-3-yl)pyrimidin-4-yl)-2-methylpiperidin-3-yl)methyl)(imino)(methyl)-λ^6-sulfanone], in assay [1], the pKi is 6.00 to 8.00. The same compound gave a negative logarithm of the IC50 (pIC50) in assay [2] above 6.30.
Compound `CC1C(CS(C)(=N)=O)CCCN1c1cc(-c2cnc3ccc(C(F)F)nn23)ncn1` (centres unmarked) [II-488, ((1-(6-(6-(Difluoromethyl)imidazo[1,2-b]pyridazin-3-yl)pyrimidin-4-yl)-2-methylpiperidin-3-yl)methyl)(imino)(methyl)-λ^6-sulfanone] showed a pKi in assay [1] of 6.00 to 8.00. The compound further had a pIC50 in assay [2] below 5.30.
Compound `CC1CN(c2cc(-c3cnc4ccc(C(F)F)nn34)ncn2)C(C)C(CNS(C)(=O)=O)=C1F` (centres unmarked) [II-491, N-((1-(6-(6-(Difluoromethyl)imidazo[1,2-b]pyridazin-3-yl)pyrimidin-4-yl)-4-fluoro-2,5-dimethyl-1,2,5,6-tetrahydropyridin-3-yl)methyl)methanesulfonamide] had a pKi in assay [1] above 8.00. Further, the negative-log IC50 (pIC50) in assay [2] is above 6.30.
The like results for `CN1CCN(c2cc(-c3cnc4ccc(C(F)F)nn34)ncn2)CC1CC(N)=O` (centres unmarked) [II-492, 2-(4-(6-(6-(Difluoromethyl)imidazo[1,2-b]pyridazin-3-yl)pyrimidin-4-yl)-1-methylpiperazin-2-yl)acetamide] were, in that order, 6.00 to 8.00 and 5.30 to 6.30.
On to `CS(=O)(=O)CCC1CCCN(c2cc(-c3cnc4ccc(C(F)F)nn34)ncn2)C1` (centres unmarked) [II-493, 6-(Difluoromethyl)-3-(6-(3-(2-(methylsulfonyl)ethyl)piperidin-1-yl)pyrimidin-4-yl)imidazo[1,2-b]pyridazine], for which the pKi in assay [1] was 6.00 to 8.00. This compound also had a negative logarithm of the IC50 (pIC50) in assay [2] of 5.30 to 6.30.
`CC1C(CNS(C)(=O)=O)N(CC2CC2)CCN1c1cc(-c2cnc3ccc(C(F)F)nn23)ncn1` (centres unmarked) [II-495, N-((1-(Cyclopropylmethyl)-4-(6-(6-(difluoromethyl)imidazo[1,2-b]pyridazin-3-yl)pyrimidin-4-yl)-3-methylpiperazin-2-yl)methyl)methanesulfonamide] showed a pKi in assay [1] above 8.00. This compound also showed a negative logarithm of the IC50 (pIC50) in assay [2] above 6.30.
`OCCC1CN(c2cc(-c3cnc4ccc(C(F)F)nn34)ncn2)CCN1` (centres unmarked) [II-496, 2-(4-(6-(6-(Difluoromethyl)imidazo[1,2-b]pyridazin-3-yl)pyrimidin-4-yl)piperazin-2-yl)ethan-1-ol] showed a pKi in assay [1] of 6.00 to 8.00. Moreover, the pIC50 in assay [2] is below 5.30.
The like results for `OCCC1CCCN(c2cc(-c3cnc4ccc(C(F)F)nn34)ncn2)C1` (centres unmarked) [II-497, 2-(1-(6-(6-(Difluoromethyl)imidazo[1,2-b]pyridazin-3-yl)pyrimidin-4-yl)piperidin-3-yl)ethan-1-ol] were, in that order, 6.00 to 8.00 and 5.30 to 6.30.
In assay [1], `OCCC1CN(c2cc(-c3cnc4ccc(C(F)F)nn34)ncn2)CCO1` (centres unmarked) [II-498, 2-(4-(6-(6-(Difluoromethyl)imidazo[1,2-b]pyridazin-3-yl)pyrimidin-4-yl)morpholin-2-yl)ethan-1-ol] had a pKi of 6.00 to 8.00. This compound showed a negative logarithm of the IC50 (pIC50) in assay [2] below 5.30.
The like results for `OCCC1CCCN(c2cc(-c3cnc4ccc(C(F)(F)F)nn34)ncn2)C1` (centres unmarked) [II-499, 2-(1-(6-(6-(Trifluoromethyl)imidazo[1,2-b]pyridazin-3-yl)pyrimidin-4-yl)piperidin-3-yl)ethan-1-ol] were, in that order, 6.00 to 8.00 and 5.30 to 6.30.
In assay [1], `OCCC1CN(c2cc(-c3cnc4ccc(C(F)(F)F)nn34)ncn2)CCO1` (centres unmarked) [II-500, 2-(4-(6-(6-(Trifluoromethyl)imidazo[1,2-b]pyridazin-3-yl)pyrimidin-4-yl)morpholin-2-yl)ethan-1-ol] showed a negative-log Ki (pKi) of 6.00 to 8.00. The compound further showed a negative logarithm of the IC50 (pIC50) in assay [2] below 5.30.
Compound `O=C(O)[C@H]1CCCN(c2cc(-c3cnc4ccc(C(F)(F)F)nn34)ncn2)C1` [II-504, (S)-1-(6-(6-(Trifluoromethyl)imidazo[1,2-b]pyridazin-3-yl)pyrimidin-4-yl)piperidine-3-carboxylic acid] had a negative-log Ki (pKi) in assay [1] of 6.00 to 8.00. This compound had a pIC50 in assay [2] below 5.30.
`O=C(O)[C@H]1CCCN(c2cc(-c3cnc4ccc(C(F)F)nn34)ncn2)C1` [II-505, (S)-1-(6-(6-(Difluoromethyl)imidazo[1,2-b]pyridazin-3-yl)pyrimidin-4-yl)piperidine-3-carboxylic acid] showed a pKi in assay [1] of 6.00 to 8.00. For the same compound, the pIC50 in assay [2] is below 5.30.
Take `O=C(O)[C@@H]1CCCN(c2cc(-c3cnc4ccc(C(F)(F)F)nn34)ncn2)C1` [II-506, (R)-1-(6-(6-(Trifluoromethyl)imidazo[1,2-b]pyridazin-3-yl)pyrimidin-4-yl)piperidine-3-carboxylic acid]: the pKi in assay [1] was 6.00 to 8.00. Also, the pIC50 in assay [2] is below 5.30.
In the case of `CC1CC(CNS(C)(=O)=O)C(C)N(c2cc(-c3cnc4ccc(C(F)F)nn34)ncn2)C1` (centres unmarked) [II-511, N-((1-(6-(6-(Difluoromethyl)imidazo[1,2-b]pyridazin-3-yl)pyrimidin-4-yl)-2,5-dimethylpiperidin-3-yl)methyl)methanesulfonamide], in assay [1], the pKi is above 8.00. Also, the pIC50 in assay [2] was above 6.30.
`OC[C@H]1CCCN(c2cc(-c3cnc4ccc(C(F)(F)F)nn34)ncn2)C1` [II-516, (S)-(1-(6-(6-(Trifluoromethyl)imidazo[1,2-b]pyridazin-3-yl)pyrimidin-4-yl)piperidin-3-yl)methanol] gave a negative logarithm of the Ki (pKi) in assay [1] of 6.00 to 8.00. Further, in assay [2], the pIC50 is 5.30 to 6.30.
For the compound `OCC1CN(c2cc(-c3cnc4ccc(C(F)(F)F)nn34)ncn2)CCO1` (centres unmarked) [II-518, (4-(6-(6-(Trifluoromethyl)imidazo[1,2-b]pyridazin-3-yl)pyrimidin-4-yl)morpholin-2-yl)methanol], the negative-log Ki (pKi) in assay [1] is 6.00 to 8.00. The compound also gave a pIC50 in assay [2] below 5.30.
`OC[C@H]1CCCN(c2cc(-c3cnc4ccc(C(F)F)nn34)ncn2)C1` [II-519, (S)-(1-(6-(6-(Difluoromethyl)imidazo[1,2-b]pyridazin-3-yl)pyrimidin-4-yl)piperidin-3-yl)methanol] had a pKi in assay [1] of 6.00 to 8.00. Besides, the negative logarithm of the IC50 (pIC50) in assay [2] is 5.30 to 6.30.
The like results for `OC[C@@H]1CCCN(c2cc(-c3cnc4ccc(C(F)F)nn34)ncn2)C1` [II-520, (R)-(1-(6-(6-(Difluoromethyl)imidazo[1,2-b]pyridazin-3-yl)pyrimidin-4-yl)piperidin-3-yl)methanol] were, in that order, 6.00 to 8.00 and 5.30 to 6.30.
Regarding `OCC1CN(c2cc(-c3cnc4ccc(C(F)F)nn34)ncn2)CCO1` (centres unmarked) [II-521, (4-(6-(6-(Difluoromethyl)imidazo[1,2-b]pyridazin-3-yl)pyrimidin-4-yl)morpholin-2-yl)methanol], the pKi in assay [1] was 6.00 to 8.00. This compound also gave a pIC50 in assay [2] of 5.30 to 6.30.
The like results for `CS(=N)(=O)C1CCCN(c2cc(-c3cnc4ccc(C(F)F)nn34)ncn2)C1` (centres unmarked) [II-522, (1-(6-(6-(Difluoromethyl)imidazo[1,2-b]pyridazin-3-yl)pyrimidin-4-yl)piperidin-3-yl)(imino)(methyl)-λ^6-sulfanone] were, in that order, 6.00 to 8.00 and 5.30 to 6.30.
Consider `[2H]C([2H])([2H])N1CCN(c2cc(-c3cnc4ccc(C(F)F)nn34)ncn2)C(C)C1CNS(C)(=O)=O` (centres unmarked) [II-523, N-((4-(6-(6-(Difluoromethyl)imidazo[1,2-b]pyridazin-3-yl)pyrimidin-4-yl)-3-methyl-1-(methyl-d3)piperazin-2-yl)methyl)methanesulfonamide], for which the pKi in assay [1] was above 8.00. Moreover, the pIC50 in assay [2] is above 6.30.
For `CC1CN(c2cc(-c3cnc4ccc(C(F)F)nn34)ncn2)CC(CNS(C)(=O)=O)C1=O` (centres unmarked) [II-525, N-((1-(6-(6-(Difluoromethyl)imidazo[1,2-b]pyridazin-3-yl)pyrimidin-4-yl)-5-methyl-4-oxopiperidin-3-yl)methyl)methanesulfonamide], in assay [1], the pKi is above 8.00. Further, in assay [2], the negative-log IC50 (pIC50) is above 6.30.
Turning to `CC1CN(c2cc(-c3cnc4ccc(C(F)F)nn34)ncn2)CC(CNS(C)(=O)=O)C1=O` (centres unmarked) [II-526, N-((1-(6-(6-(Difluoromethyl)imidazo[1,2-b]pyridazin-3-yl)pyrimidin-4-yl)-5-methyl-4-oxopiperidin-3-yl)methyl)methanesulfonamide], the pKi in assay [1] is above 8.00. The same compound gave a pIC50 in assay [2] above 6.30.
